Patent US12297296B2, “Nano small peptide and its use in preparation of drugs for treating and preventing fundus vascular diseases” (FUTU Biotech Co., Ltd., priority 2021, dated 2025)
Where a SMILES comes first, the peptide text is derived from it. [ ]: non-standard residue; d: D form. The star is where a group is joined. ξ: configuration not given here. Palmitoyl = CCCCCCCCCCCCCCCC(=O)*; ξF = NC(Cc1ccccc1)C(=O)O

How the values were obtained:
[1] = tested on: OIR model mice; experiment: Evans blue leakage test, fundus vascular leakage; type: in vivo, mouse; details: 2 nmol intravitreal
[2] = molecular target: T1, sSema4D (Mus musculus, UniProt O09126); experiment: sSema4D concentration in endothelial cell culture supernatant (ELISA); type: cell-based; set-up: the free Sema4D protein after enzyme cleavage of Sema4D, that is, the sSema4D protein purchased from R&D Systems Company; purchased R&D Systems; details: endothelial cells; for sSema4D concentration over the time course: 20 μM, 12, 24, 36, and 48 h; for sSema4D concentration: sSema4D 1600 ng/mL, peptide 20 μM, antibody 2 μg/μL
T1 sequence (O09126 24-733 limits assumed): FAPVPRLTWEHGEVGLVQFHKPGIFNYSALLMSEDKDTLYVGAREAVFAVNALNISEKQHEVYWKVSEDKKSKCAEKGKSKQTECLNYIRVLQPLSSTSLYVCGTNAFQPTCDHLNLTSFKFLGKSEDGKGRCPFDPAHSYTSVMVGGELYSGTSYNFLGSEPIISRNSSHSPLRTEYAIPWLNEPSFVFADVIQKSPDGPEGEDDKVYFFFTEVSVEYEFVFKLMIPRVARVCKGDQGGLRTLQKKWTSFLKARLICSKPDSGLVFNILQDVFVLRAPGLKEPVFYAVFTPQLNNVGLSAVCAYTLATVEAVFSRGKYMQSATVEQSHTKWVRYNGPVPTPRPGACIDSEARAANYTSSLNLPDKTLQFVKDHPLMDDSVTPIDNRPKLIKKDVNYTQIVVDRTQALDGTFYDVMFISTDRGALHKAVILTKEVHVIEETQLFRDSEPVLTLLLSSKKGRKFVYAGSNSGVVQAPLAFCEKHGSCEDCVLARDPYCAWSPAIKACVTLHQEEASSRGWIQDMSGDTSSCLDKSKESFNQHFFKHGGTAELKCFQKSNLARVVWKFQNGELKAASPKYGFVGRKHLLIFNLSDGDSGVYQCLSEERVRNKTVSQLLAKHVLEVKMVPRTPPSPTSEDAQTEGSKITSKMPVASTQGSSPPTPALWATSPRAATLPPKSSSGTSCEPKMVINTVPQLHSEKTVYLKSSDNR
Procedure: Endothelial cells were uniformly seeded in 6-well cell culture plates and cultured in a 5% CO2 incubator at 37° C. for 24 h. The nano small peptides FH, FG, DMSO, and Sema4D neutralizing antibody (BMA-12) were added to the medium (the concentration of sSema4D in the medium was 1600 ng/mL) to ensure that the final concentration of FH and FG was 20 μM, and the final concentration of the sSema4D neutralizing antibody (BMA-12) was 2 μg/μL, an equal volume of DMSO was then added as a control, and the culture plates were cultured in an incubator for 12, 24, 36, and 48 h, respectively. The cell culture medium was then collected and centrifuged. The supernatant was taken and the expression of Sema4D protein in the supernatant was detected using an ELISA kit (Shanghai Yuanmu Biotechnology Co., Ltd.).

[3] = tested on: endothelial cells (primary endothelial cells of mouse brain microvessels); experiment: CCK8 cytotoxicity assay; type: cell-based; details: 20 μM; 12, 14, and 36 h
[4] = molecular target: T1, sSema4D; experiment: CD spectra of nanoparticles before and after induction by sSema4D protein; type: physicochemical; set-up: the free Sema4D protein after enzyme cleavage of Sema4D, that is, the sSema4D protein purchased from R&D Systems Company; purchased R&D Systems; details: 20 μM; for CD secondary structure before induction by sSema4D protein: H2O containing 0.5% dimethyl sulfoxide, signal at 200 nm negative; for CD secondary structure after induction by sSema4D protein: signal at 200 nm positive, negative signal at 220 nm
Procedure: First, FG and FH nanoparticle solutions with a concentration of 20 μM were prepared as follows. 0.01 mmol of FG (or FH) was weighed and dissolved in 1 mL of DMSO solution, and then diluted into 5 folds to a concentration of 2 mM, thus obtaining mother solution A. 10 μL of mother solution A was quickly added to 1 mL of water, and the resulting solution was then vortexed for 30 s to obtain a nanoparticle solution. Second, samples were made. 10 ul of FG (or FH) solution was added dropwise onto a copper mesh for 5 min, and the excess solution was removed with filter paper. 10 μL of uranyl acetate stain was added dropwise for 5 min, and the excess stain was removed with filter paper. Washing with 10 μl of deionized water was carried out once. The samples were dried in vacuum overnight. Finally, transmission electron microscopy observations were performed on an HT-7700 transmission electron microscope (Hitachi, Tokyo, Japan). Scale bar was 200 nm.
The CD spectra of FH and FG nanoparticles (20 μM) were collected at room temperature using a CD spectrometer (JASCO-1500, Tokyo, Japan) with an optical path length of 1 mm. Measurements were performed between 190 nm and 300 nm with a resolution of 1.0 nm at a scan speed of 300 nm/min. For each measurement, three spectra were collected and averaged.

[5] = molecular target: T1, sSema4D; experiment: sSema4D concentration in a simple medium system (ELISA); type: biochemical; set-up: the free Sema4D protein after enzyme cleavage of Sema4D, that is, the sSema4D protein purchased from R&D Systems Company; purchased R&D Systems; details: for sSema4D concentration: sSema4D 1600 ng/mL, peptides 20 μM, antibody 2 μg/μL
Procedure: The nano small peptides FH, FG, DMSO, and Sema4D neutralizing antibody (BMA-12) were added to the medium (the concentration of sSema4D in the medium was 1600 ng/mL) to ensure that the final concentration of FH and FG was 20 μM, and the final concentration of the Sema4D neutralizing antibody (BMA-12) (BMA-12, i.e., anti-Sema4D) was 2 μg/μL, an equal volume of DMSO was then added as a control, and culture plates were set still at 37° C. for 12, 24, 36, and 48 h, and the culture medium was collected, and the expression of Sema4D protein in the supernatant was detected using an ELISA kit (Shanghai Yuanmu Biotechnology Co., Ltd.).

[6] = tested on: primary mouse brain microvascular pericytes; experiment: Pericyte migration (transwell experiment); type: cell-based; details: 20 μM, 36 h; for sSema4D-induced pericyte migration: sSema4D 1600 ng/mL
Procedure: The primary mouse brain microvascular pericytes were starved with 0.5% PM for 4 to 6 h. The pericytes were seeded in the upper layer of a 24-well transwell chamber (8 μm). The medium containing FH (20 μM), FG (20 μM), and Sema4D neutralizing antibody (BMA-12) (2 μg/μL) (the concentration of sSema4D in the medium is 1600 ng/mL) was added to the lower chamber, and an equal volume of DMSO was added as control. The cells were incubated in a 5% CO2 incubator at 37° C. for 36 h. 36 h later, the cells on the bottom of the chamber were fixed with 4% paraformaldehyde and stained with crystal violet, and the pericytes that penetrated to the bottom of the chamber were counted under a microscope.

| sSema4D concentration ([2]; 24 h) | effect on sSema4D concentration compared with FG ([2]; within the same action time) | CD secondary structure before induction by sSema4D protein [4] | CD secondary structure after induction by sSema4D protein [4] | sSema4D concentration ([5]; 24 h) | effect on sSema4D concentration compared with FG ([5]; within the same action time) | SMILES | treatment effect on fundus vascular leakage compared with anti-Sema4D (1 μg) [1] | vascular leakage of the fundus [1] | sSema4D concentration over the time course [2] | sSema4D concentration ([2]; 36 h) | toxic effects on endothelial cells [3] | sSema4D concentration ([5]; 36 h) | inhibition of pericyte migration compared with Sema4D neutralizing antibody (BMA-12, 2 μg/μL) [6] | sSema4D-induced pericyte migration [6] |
| --- | --- | --- | --- | --- | --- | --- | --- | --- | --- | --- | --- | --- | --- | --- |
| can reduce the sSema4D concentration | better than that of FG | random coil structure | transition to a β-sheet folded structure | can reduce the sSema4D concentration | better than that of FG | CCCCCCCCCCCCCCCC(=O)NC(Cc1ccccc1)C(=O)N[C@@H](Cc1ccccc1)C(=O)N[C@H](C(=O)N[C@@H](CC(C)C)C(=O)N[C@@H](CCCCN)C(=O)N[C@@H](CCCCN)C(=O)N[C@@H](CCC(N)=O)C(=O)N[C@@H](CCCCN)C(=O)N[C@@H](CCCNC(=N)N)C(=O)N1CCC[C@H]1C(=O)N[C@@H](CCCNC(=N)N)C(=O)N[C@@H](Cc1c[nH]cn1)C(=O)O)C(C)C (stereo in doubt) [FH, hexadecanoyl-FFVLK-KQKRPRH] | comparable | can inhibit vascular leakage of the fundus | can sustainably reduce the concentration of sSema4D | can still reduce the sSema4D concentration | did not cause toxic effects | can still reduce the sSema4D concentration | more effective | significantly inhibit |
| – | – | random coil structure | transition to a β-sheet folded structure | can reduce the sSema4D concentration | – | CCCCCCCCCCCCCCCC(=O)NC(Cc1ccccc1)C(=O)N[C@@H](Cc1ccccc1)C(=O)N[C@H](C(=O)N[C@@H](CC(C)C)C(=O)N[C@@H](CCCCN)C(=O)N[C@@H](CCCCN)C(=O)N[C@@H](CC(N)=O)C(=O)N[C@@H](CCCCN)C(=O)N[C@@H](C)C(=O)N[C@@H](C)C(=O)N[C@@H](CCCCN)C(=O)NCC(=O)O)C(C)C (some centres unmarked) [FG] (Palmitoyl-[ξF]FVLKKNKAAKG-OH) | comparable | can inhibit vascular leakage of the fundus | can sustainably reduce the concentration of sSema4D | – | did not cause toxic effects | can still reduce the sSema4D concentration | – | significantly inhibit |
